Reference: patent US12648928B2, “Intervention strategy for prevention or treatment of diabetes mellitus, autoimmune disease, inflammatory disease or cardiovascular disease” (ACADEMISCH MEDISCH CENTRUM, priority 2020, dated 2026)

Columns and labels:
[1] = molecular target: T1, AhR (Homo sapiens, UniProt P35869); test: AhR activation
T1 sequence (P35869 11-848): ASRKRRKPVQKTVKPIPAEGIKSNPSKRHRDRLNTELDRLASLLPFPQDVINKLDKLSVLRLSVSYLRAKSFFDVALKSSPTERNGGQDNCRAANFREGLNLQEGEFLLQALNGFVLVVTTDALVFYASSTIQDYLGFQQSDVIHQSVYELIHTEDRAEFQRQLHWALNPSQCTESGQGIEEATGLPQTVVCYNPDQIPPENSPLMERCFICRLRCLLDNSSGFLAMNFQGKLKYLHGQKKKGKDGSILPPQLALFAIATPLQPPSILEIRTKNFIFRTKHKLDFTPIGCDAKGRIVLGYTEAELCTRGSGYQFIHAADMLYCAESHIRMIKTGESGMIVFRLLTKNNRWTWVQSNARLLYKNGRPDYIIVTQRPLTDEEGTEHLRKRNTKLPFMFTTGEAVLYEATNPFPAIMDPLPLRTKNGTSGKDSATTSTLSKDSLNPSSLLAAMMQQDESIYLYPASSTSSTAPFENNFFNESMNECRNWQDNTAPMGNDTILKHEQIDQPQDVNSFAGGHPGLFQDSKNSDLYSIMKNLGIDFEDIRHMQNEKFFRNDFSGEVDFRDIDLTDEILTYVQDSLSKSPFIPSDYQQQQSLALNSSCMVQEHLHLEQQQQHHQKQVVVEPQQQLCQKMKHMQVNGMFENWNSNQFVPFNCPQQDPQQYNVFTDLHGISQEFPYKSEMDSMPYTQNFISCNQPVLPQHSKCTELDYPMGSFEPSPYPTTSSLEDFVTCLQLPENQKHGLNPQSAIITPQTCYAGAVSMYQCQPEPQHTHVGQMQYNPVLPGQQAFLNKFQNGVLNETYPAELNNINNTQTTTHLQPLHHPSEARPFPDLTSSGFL

[2] = tested on: NF-kB pathway; test: Phosphorylated p65 subunit after PMA/ionomycin activation, murine CD4 T cells; type: cell-based; details: PMA 50 μg/ml and ionomycin 1 μg/ml, 5-10 minutes after activation (FIG. 18)
Protocol: Seeking for the molecular mechanism(s) underlying 6-BT actions, 6-BT impact on the activation of the NF-kB pathway, a central pathway in all inflammatory diseases (beyond autoimmunity) was checked first. […] Upon T cell activation with PMA ([…]) and ionomycin (1 μg/ml), 6-BT could inhibit, at very early time-points (5-10 minutes after activation), the NF-kB signaling. This effect was found in both murine and human (Jurkat cells) CD4 T cells.

[3] = tested on: murine DC; test: In vitro stimulation of murine dendritic cells, cytokine secretion; type: cell-based; details: GM-CSF differentiated DC
Protocol: Bone marrow-derived macrophages (BMDM) and DC (BMDC) were obtained by differentiating freshly isolated BM cells from femur and tibia bones (as above described) of C57/B16 mice (N=3 per experiment). For BMDM, BM cells were seeded at 3×10^6 cells per 10 cm dish and cultured for 7 days in 12 ml RPMI1640 medium with 20% fetal bovine serum, 30% L-929 cell conditioned media, as source of murine macrophage colony-stimulating factor (M-CSF). For BMDC, BM cells were seeded at 0.5×10^6/ml cells in 25 ml in 10 cm dishes and cultured for 7 days in presence of GM-CSF in 5% FBS-RPMI1640 medium. After differentiation, BMDM/DCs were harvested, counted and seeded at a density of 1×10^5 cells per well in a F-bottom 96-well plate and left to adhere for 20 hours before experiments were performed. […]
Specific ELISAs (R&D Systems) were utilized to measure the concentration of TNFα, IFNβ, and IFNγ in cell supernatant of murine monocytes, macrophages ad T cells, respectively, according to the manufacturer's instructions. The concentration of insulin after 24-hour treatment with metabolites or after GSIS were determined using Rat insulin ELISA (Mercodia) according to the manufacturer's instructions. GSIS was calculated by subtracting the concentration of insulin at 1 mM glucose to the insulin rate at 22 mM glucose. […]

[4] = tested on: human monocytes; test: In vitro stimulation of human monocytes; type: cell-based; details: LPS stimulation 24 hours, 100 μM (FIG. 10)
Protocol: The mononuclear cell fraction was isolated from the blood of healthy volunteers (Sanquin Bloodbank, Amsterdam, The Netherlands) by density centrifugation using Lymphoprep™ (Axis-Shield) and isolated using human CD14 magnetic beads and MACS® cell separation columns (Miltenyi Biotec) according to the manufacturer's instructions. Isolated primary human monocytes were counted and seeded at 1>10^6 cells/mL in 24-well plates with 1 ml medium supplemented with 10% fetal bovine serum, 100 U/ml penicillin, 100 μg/ml streptomycin, 2 mM L-glutamine. After seeding, cells were stimulated with 10 ng/ml LPS or 25 mM D-glucose (both Sigma-Aldrich) for 24 hours with/without 100 μM 6-BT. Afterwards, cells were lysed with Tripure isolation reagent (Roche) and stored at −80° C. until RNA isolation.
Total RNA was extracted from Tripure isolation reagent cell lysates. RNA was converted to cDNA by with iScript kit (BioRad). Quantitative polymerase chain reaction (qPCR) was performed using SYBR Green-SensiMix (Bioline) on a CFX384 Touch Real-Time PCR Detection System (BioRad). The delta delta Ct method was used to calculate gene expression as fold-change compared to control (unstimulated conditions).

- activation of AhR [1]: does not act through activation of AhR
SMILES: N[C@@H](Cc1c[nH]c2cc(Br)ccc12)C(=O)O [6-BT, 6-bromotryptophan]
- NF-kB signaling (phosphorylated p65 subunit) [2]: could inhibit
- secretion of IFNbeta by DC ([3]; TLR3 activation with 10 μg/ml poly(I.C) (FIG. 15)): inhibits the secretion
- secretion of TNFα by DC ([3]; TLR4 activation with 100 μg/ml LPS (FIG. 15)): inhibits the secretion
- cytokine production by human monocytes [4]: reduces cytokine production
